Tested on: NCI-H1341 complex spheroids, percent test/control
Experiment: Anticancer human tumor NCI-H1341 cell line growth inhibition [AhR];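 also: spheroids exposed to agents for seven days before readout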
Settings: for IC50: curve of first compound; for viability, T/C: stronger effect = lower value
Excerpt: Multicellular complex tumor spheroid response to aryl hydrocarbon receptor antagonists in combination with a variety of drugs and investigational agents in selected tumor cell lines
The current study was undertaken to assess response to aryl hydrocarbon receptor antagonists in combination with standard-of-care drugs and investigational agents in solid tumor complex spheroid models. Complex spheroids include a stromal component modeled by human endothelial cells (HUVEC) and fibroblasts modeled by human mesenchymal stem cells (MSCs). The concentration ranges selected for each drug and investigational agent were based upon clinically achievable concentrations if the clinical Cmax of the agent was known.
Compounds. The drugs and investigational agents: BAY 2416964 (NSC825713), GNF351 (NSC835774), CH-223191 (NSC835775), CPI-455 (NSC825282), aza-TdCyd (NSC777586), decitabine (NSC127716), belinostat (NSC758774), entinostat (NSC756642), pevonedistat (NSC761192), tazemetostat (NSC777109), talazoparib (NSC765396), olaparib (NSC753686), selinexor (NSC780203), nedisertib (M3814, NSC802822), bortezomib (NSC756655), venetoclax (NSC766270), doxorubicin (NSC123127), elimusertib (BAY189344, NSC800525), ceralasertib (AZD6738, NSC777638), TAK-243 (NSC785004), alisertib (NSC759677), etoposide (NSC141540), topotecan (NSC609699), eribulin (NSC707389), gemcitabine (NSC613327), carboplatin (NSC241240), cisplatin (NSC119875), and SN-38 (NSC673596) were obtained from the National Cancer Institute (NCI) Developmental Therapeutics Program Chemical Repository (32). The FDA-approved anticancer drug set is available from the Developmental Therapeutics Program at https://dtp.cancer.gov/organization/dscb/obtaining/available plates.htm. […] The stock solutions were prepared in dimethyl sulfoxide (DMSO, Sigma-Aldrich, St. Louis, MO, cat. D2650), except for the platinum compounds which were prepared in saline (Quality Biological, Gaithersburg, MD, cat. 114-055-101), at 800-fold the tested concentration and stored at -70 degrees C prior to their use. All drugs and investigational agents were tested over a range starting from a high concentration at or near the clinical Cmax and decreasing in half-log increments. If the clinical Cmax for an agent had not been determined, the highest concentration tested was 10 microM (Table 1).
Cell Culture. All cells were maintained in an incubator at 37 degrees C and 5% CO2 with 95% humidity. The PDC lines were cultured according to standard operating procedures established by the NCI PDMR (https://pdmr.cancer.gov). Briefly, all PDCs were thawed and cultured in Matrigel-coated flasks prepared with a working solution of 1X Ham's F-12 nutrient mix, without supplementation (Invitrogen, Waltham, MA, cat. 11765054), 100 U/mL penicillin-streptomycin (Invitrogen, cat. 15140122), and 2.5% Matrigel (Corning Inc., Corning, NY, cat. 354248) for the first three passages. All PDCs were cultured in complete DMEM/F-12 media containing advanced DMEM/F-12 (Invitrogen, cat. 12634028), 4.9% defined fetal bovine serum, heat inactivated (HyClone Laboratories Inc., Logan, UT, cat. SH30070.03HI), 389 ng/mL hydrocortisone (Sigma-Aldrich, cat. H4001), 9.7 ng/mL human EGF recombinant protein (Invitrogen, cat. PHG0313), 23.4 microg/mL adenine (Sigma-Aldrich, cat. A2786), 97.3 U/mL penicillin-streptomycin (Invitrogen, cat. 15140122), 1.9 mM L-glutamine (Invitrogen, cat. 25030081), and 9.7 microM Y-27632 dihydrochloride (Tocris Bioscience, Bristol, United Kingdom, cat. 1254). The PDCs were cultured in complete DMEM/F12 media without 10 microM Y-27632 dihydrochloride for at least two passages prior to the screen. The established cell lines NCI-H1341 and […] were cultured in DMEM/F-12, HEPES (Invitrogen, cat. 11330032), 5% defined fetal bovine serum (HyClone Laboratories Inc., cat. SH30070.03), ITS premix universal culture supplement [insulin (5 microg/mL), transferrin (5 microg/mL), and selenious acid (5 ng/mL)] […]

[1] = second compound 0.1 µM, first compound 0.0316 µM
[2] = second compound 0.1 µM, first compound 0.1 µM
[3] = second compound 0.1 µM, first compound 0.316 µM
[4] = second compound 0.1 µM, first compound 1 µM
[5] = second compound 0.1 µM, first compound 3.16 µM
[6] = second compound 0.1 µM, first compound 10 µM
[7] = second compound 0.316 µM, first compound 0.0316 µM
[8] = second compound 0.316 µM, first compound 0.1 µM
[9] = second compound 0.316 µM, first compound 0.316 µM
[10] = second compound 0.316 µM, first compound 1 µM
[11] = second compound 0.316 µM, first compound 3.16 µM
[12] = second compound 0.316 µM, first compound 10 µM
[13] = second compound 1 µM, first compound 0.0316 µM
[14] = second compound 1 µM, first compound 0.1 µM
[15] = second compound 1 µM, first compound 0.316 µM
[16] = second compound 1 µM, first compound 1 µM
[17] = second compound 1 µM, first compound 3.16 µM
[18] = second compound 1 µM, first compound 10 µM
[19] = second compound 3.16 µM, first compound 0.0316 µM
[20] = second compound 3.16 µM, first compound 0.1 µM
[21] = second compound 3.16 µM, first compound 0.316 µM
[22] = second compound 3.16 µM, first compound 1 µM
[23] = second compound 3.16 µM, first compound 3.16 µM
[24] = second compound 3.16 µM, first compound 10 µM
[25] = second compound 10 µM, first compound 0.0316 µM
[26] = second compound 10 µM, first compound 0.1 µM
[27] = second compound 10 µM, first compound 0.316 µM
[28] = second compound 10 µM, first compound 1 µM
[29] = second compound 10 µM, first compound 3.16 µM
[30] = second compound 10 µM, first compound 10 µM

CCN(c1cc(-c2ccc(CN3CCOCC3)cc2)cc(C(=O)NCc2c(C)cc(C)[nH]c2=O)c1C)C1CCOCC1 + Cc1ccccc1N=Nc1ccc(NC(=O)c2ccnn2C)c(C)c1
IC50 (second compound 0.1 µM): > 3000 nM
IC50 (second compound 0.316 µM): > 3000 nM
IC50 (second compound 1 µM): > 3000 nM
IC50 (second compound 3.16 µM): > 3000 nM
IC50 (second compound 10 µM): > 3000 nM
viability, T/C (second compound 0.1 µM, first compound 0.00949 µM): 95.8%
viability, T/C (second compound 0.1 µM, first compound 0.03 µM): 85.1%
viability, T/C (second compound 0.1 µM, first compound 0.0949 µM): 75.5%
viability, T/C (second compound 0.1 µM, first compound 0.3 µM): 104%
viability, T/C (second compound 0.1 µM, first compound 0.949 µM): 90.9%
viability, T/C (second compound 0.1 µM, first compound 3 µM): 107%
viability, T/C (second compound 0.316 µM, first compound 0.00949 µM): 90.2%
viability, T/C (second compound 0.316 µM, first compound 0.03 µM): 103%
viability, T/C (second compound 0.316 µM, first compound 0.0949 µM): 89.6%
viability, T/C (second compound 0.316 µM, first compound 0.3 µM): 87.1%
viability, T/C (second compound 0.316 µM, first compound 0.949 µM): 104%
viability, T/C (second compound 0.316 µM, first compound 3 µM): 73.1%
viability, T/C (second compound 1 µM, first compound 0.00949 µM): 91.6%
viability, T/C (second compound 1 µM, first compound 0.03 µM): 102%
viability, T/C (second compound 1 µM, first compound 0.0949 µM): 94.7%
viability, T/C (second compound 1 µM, first compound 0.3 µM): 90.6%
viability, T/C (second compound 1 µM, first compound 0.949 µM): 79.8%
viability, T/C (second compound 1 µM, first compound 3 µM): 100%
viability, T/C (second compound 3.16 µM, first compound 0.00949 µM): 75.2%
viability, T/C (second compound 3.16 µM, first compound 0.03 µM): 75.1%
viability, T/C (second compound 3.16 µM, first compound 0.0949 µM): 70.6%
viability, T/C (second compound 3.16 µM, first compound 0.3 µM): 71%
viability, T/C (second compound 3.16 µM, first compound 0.949 µM): 73.3%
viability, T/C (second compound 3.16 µM, first compound 3 µM): 60.6%
viability, T/C (second compound 10 µM, first compound 0.00949 µM): 54.9%
viability, T/C (second compound 10 µM, first compound 0.03 µM): 45.6%
viability, T/C (second compound 10 µM, first compound 0.0949 µM): 54.6%
viability, T/C (second compound 10 µM, first compound 0.3 µM): 52.2%
viability, T/C (second compound 10 µM, first compound 0.949 µM): 49.8%
viability, T/C (second compound 10 µM, first compound 3 µM): 66.5%

O=C(C=Cc1cccc(S(=O)(=O)Nc2ccccc2)c1)NO + CC(CO)NC(=O)c1cc(-c2ccc(Cl)cc2)nn(-c2cnn(C)c2)c1=O
IC50 (second compound 0.1 µM): 230 nM
IC50 (second compound 0.316 µM): 278 nM
IC50 (second compound 1 µM): 258 nM
IC50 (second compound 3.16 µM): 262 nM
IC50 (second compound 10 µM): 163 nM
viability, T/C [1]: 73.7%
viability, T/C [2]: 65.4%
viability, T/C [3]: 41.8%
viability, T/C [4]: 27.1%
viability, T/C [5]: 4.5%
viability, T/C [6]: 0.64%
viability, T/C [7]: 81.9%
viability, T/C [8]: 65.6%
viability, T/C [9]: 48.6%
viability, T/C [10]: 27.8%
viability, T/C [11]: 5.91%
viability, T/C [12]: 0.46%
viability, T/C [13]: 84.8%
viability, T/C [14]: 68.1%
viability, T/C [15]: 45.7%
viability, T/C [16]: 25.5%
viability, T/C [17]: 5.09%
viability, T/C [18]: 1.14%
viability, T/C [19]: 78.9%
viability, T/C [20]: 63.3%
viability, T/C [21]: 49.7%
viability, T/C [22]: 21.9%
viability, T/C [23]: 5.78%
viability, T/C [24]: 0.71%
viability, T/C [25]: 70.6%
viability, T/C [26]: 52.7%
viability, T/C [27]: 44.5%
viability, T/C [28]: 20.3%
viability, T/C [29]: 5.56%
viability, T/C [30]: 0.44%

CC(C)c1c(-c2ccccc2)nc2c(C#N)c[nH]n2c1=O + Cc1ccccc1N=Nc1ccc(NC(=O)c2ccnn2C)c(C)c1
IC50 (second compound 0.1 µM): > 10000 nM
IC50 (second compound 0.316 µM): > 10000 nM
IC50 (second compound 1 µM): > 10000 nM
IC50 (second compound 3.16 µM): > 10000 nM
IC50 (second compound 10 µM): < 31.6 nM
viability, T/C [1]: 84.2%
viability, T/C [2]: 87.6%
viability, T/C [3]: 86.5%
viability, T/C [4]: 87.5%
viability, T/C [5]: 81.7%
viability, T/C [6]: 96.4%
viability, T/C [7]: 99%
viability, T/C [8]: 82.8%
viability, T/C [9]: 84.2%
viability, T/C [10]: 92.2%
viability, T/C [11]: 97.5%
viability, T/C [12]: 83.2%
viability, T/C [13]: 90.1%
viability, T/C [14]: 93.8%
viability, T/C [15]: 74%
viability, T/C [16]: 81.7%
viability, T/C [17]: 83.8%
viability, T/C [18]: 95.7%
viability, T/C [19]: 72.2%
viability, T/C [20]: 77.1%
viability, T/C [21]: 59.5%
viability, T/C [22]: 72.2%
viability, T/C [23]: 73.3%
viability, T/C [24]: 76.4%
viability, T/C [25]: 44.9%
viability, T/C [26]: 49%
viability, T/C [27]: 52%
viability, T/C [28]: 48.6%
viability, T/C [29]: 59.3%
viability, T/C [30]: 42.9%

From PubChem BioAssay AID1919014 (Molecular Pharmacology Branch, DTP, NCI, 2023)
